Measurements published in the METLIN SMRT retention time set (Domingo-Almenara et al. 2019).

Test: gradient 5% acetonitrile 3 min, to 50% in 2 min, to 85% in 15 min, held 3 min, 100 µL/min
Conditions: column: Zorbax Extend-C18 2.1 x 50 mm; eluents: water / acetonitrile, 0.1% formic acid
Procedure, shortened: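 Pure standards were analyzed in mixtures of ~100 molecules using HPLC coupled to a quadrupole time-of-flight mass spectrometer, in both positive and negative ionization mode. Separation used a Zorbax Extend-C18 column (2.1 × 50 mm, 1.8 μm) at 100 μL/min, with water and acetonitrile each containing 0.1% formic acid. Dead and dwell volumes were 40 μL and 900 μL, and data were collected over 3 months. Retention time was read from computationally picked adduct peaks, each inspected manually.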

Cc1cnc(C(=O)NC2C[C@H]3CC[C@@H](C2)N3C(=O)c2cnc(C)cn2)cn1 (stereo partly drawn)
RP-LC retention time: 584 s

CCOC(=O)c1c(C)[nH]c(C(=O)N2CCCC(C(=O)N3CCOCC3)C2)c1C (stereo not drawn)
RP-LC retention time: 672 s

CCc1nc(-c2csc(S(=O)(=O)N3CCC(C(=O)N4CCOCC4)CC3)c2)no1
RP-LC retention time: 796 s

Cc1ccc2nc(-c3ccncc3)cc(C(=O)Nc3nc(-c4ccccc4)c(C)s3)c2c1
RP-LC retention time: 990 s

CCCN(CC1CCOC1)C(=O)Nc1ccc(F)cc1 (stereo not drawn)
RP-LC retention time: 728 s

CC(C)=C1SC(N2CCN(c3cccc(C(F)(F)F)c3)CC2)=NC1=O
RP-LC retention time: 922 s

O=C1CC(/C=C/c2ccccc2)Cc2nc(N3CCN(c4ncccn4)CC3)ncc21 (stereo not drawn)
RP-LC retention time: 1130 s

CCC(CC)C(=O)N1CCc2c(c(C(=O)N3CCCC(C(=O)Nc4ccccc4)C3)nn2C)C1 (stereo not drawn)
RP-LC retention time: 761 s

COc1ccc2[nH]c(=O)c(CCC(=O)NCCN3CCCCCC3)cc2c1
RP-LC retention time: 600 s

O=C(NC1CCN(C(=O)C2CC2)C1)C1CCC1 (stereo not drawn)
RP-LC retention time: 606 s

Cc1nc(-c2ccccc2)cc2nn(CC(=O)N3CCCc4ccccc43)c(=O)n12
RP-LC retention time: 1010 s

CCOC(=O)c1c(C)oc2nc(C)nc(NCCCN3CCN(c4ccccc4)CC3)c12
RP-LC retention time: 826 s

Cc1cc(C)nc(Nc2nc(C(=O)N3CCN(C(=O)c4ccco4)CC3)cs2)n1
RP-LC retention time: 665 s

CCC(=O)N1CCc2cc(C(=O)NC)ccc21
RP-LC retention time: 626 s

Cc1ccc(NC(=O)Cc2c(C)nn(-c3nc(-c4ccc(Cl)cc4)cs3)c2C)c(C)c1
RP-LC retention time: 1280 s

O=S(=O)(c1ccc2c(c1)OCCO2)N1CCC(CN2CCCCCC2)CC1
RP-LC retention time: 645 s

O=C(NCc1ccc2c(c1)OCO2)C1=CCN(Cc2ccccc2)CC1
RP-LC retention time: 607 s

N#Cc1cccc(C(=O)NC2CCN(c3cc(-c4ccc(F)cc4)[nH]n3)C2)c1 (stereo not drawn)
RP-LC retention time: 712 s

O=c1ccc(N2CCC(NS(=O)(=O)c3ccccc3C(F)(F)F)C2)n[nH]1 (stereo not drawn)
RP-LC retention time: 687 s

O=C(c1cncc(Br)c1)N1CCc2cc(-c3csc(C4CC4)n3)ccc21
RP-LC retention time: 1070 s

O=C(COc1ccc(Cl)cc1)N1CCC(c2nnc(-c3ccc(F)cc3)o2)CC1
RP-LC retention time: 831 s

CCn1c(=O)c(N2CCC(NC(=O)NCc3ccccc3)CC2)nc2ccccc21
RP-LC retention time: 838 s

CCCNC(=O)Nc1ccc(NC(=O)N2CCCC(C(=O)NC3CCCCC3)C2)cc1 (stereo not drawn)
RP-LC retention time: 702 s

COc1ccccc1CNC(=O)C1CCN(S(=O)(=O)c2ccc3[nH]c(=O)ccc3c2)CC1
RP-LC retention time: 714 s

Cc1nc(-c2cc(S(=O)(=O)Nc3ccc(Br)c(C)c3)c(C)s2)cs1
RP-LC retention time: 1120 s

CC1(O)CCOC2(CCN(C(=O)c3ccc(Br)o3)CC2)C1 (stereo not drawn)
RP-LC retention time: 690 s

Cc1cc(C2CCCN2C(=O)Cc2ccc(F)cc2Cl)no1 (stereo not drawn)
RP-LC retention time: 851 s

Cc1nc(-c2cccs2)sc1C(=O)NCCn1nc(-n2ccnc2C)ccc1=O
RP-LC retention time: 564 s

O=C(Cc1nc(-c2ccccn2)n[nH]1)Nc1ccc(F)cc1F
RP-LC retention time: 652 s

O=C(Cn1c(=O)oc2ccc(Cl)cc21)N1CCc2ccccc21
RP-LC retention time: 898 s

Cc1ccc(S(=O)(=O)N2CC3CN(C(=O)c4ccc5c(c4)OCO5)CC(C2)O3)cc1
RP-LC retention time: 804 s

COc1cc(OC)cc(C(=O)N2CCC3(C2)C(=O)Nc2ccccc23)c1 (stereo not drawn)
RP-LC retention time: 707 s

COc1cccc(Cc2nc(CCS(=O)(=O)c3ccc(F)cc3)no2)c1
RP-LC retention time: 904 s

COCc1cn(C2CN(C(=O)c3ccc(C)s3)C2)nn1
RP-LC retention time: 649 s

O=C(Nc1ccccc1)N1CCCC1c1nncn1C1CCCC1 (stereo not drawn)
RP-LC retention time: 622 s

O=C(NC1CCS(=O)(=O)C1)c1ccc(N2CCCC2)nn1 (stereo not drawn)
RP-LC retention time: 520 s

CCc1cccc(NC(=O)c2csc(-c3cn(C)c4ncccc34)n2)c1
RP-LC retention time: 1120 s

COc1ccc(NC(=O)C2CC(=O)N(c3cccc(NC(C)=O)c3)C2)cc1Cl (stereo not drawn)
RP-LC retention time: 709 s

Cc1nnc(SCC(=O)NCCc2ccccc2)s1
RP-LC retention time: 650 s

CC(C)n1cc(C2=CCN(C(=O)NC3CCCCC3)CC2)c2cccnc21
RP-LC retention time: 945 s

Cc1ccc(NC(=O)NCCn2c(-c3ccncc3)nc3cccnc32)cc1Cl
RP-LC retention time: 666 s

CCNC(=O)N1CCCC(c2cccc(C(=O)NCc3ccc(F)cc3F)c2)C1 (stereo not drawn)
RP-LC retention time: 804 s

CCN1CCCn2cc(S(=O)(=O)Nc3cc(F)cc(F)c3)cc2C1=O
RP-LC retention time: 768 s

O=c1c(=O)n(-c2ccccc2)ccn1Cc1nc(-c2cccc(F)c2)no1
RP-LC retention time: 805 s

Cc1sc(C)c(S(=O)(=O)Nc2ccc(F)cc2)c1-c1cc(C(F)(F)F)on1
RP-LC retention time: 1140 s

Cc1ccc(Cn2c(=O)c(SCC(=O)NCC3CCCO3)nc3ccccc32)cc1 (stereo not drawn)
RP-LC retention time: 889 s

CC(C)c1csc(-c2csc(S(=O)(=O)NCc3ccccc3)c2)n1
RP-LC retention time: 1040 s

CCC(CO)NCc1ccc(-c2cc(Cl)ccc2Cl)o1 (stereo not drawn)
RP-LC retention time: 693 s

Cn1c(C(=O)N2CCN(c3cccc(Cl)c3)CC2)cc2sccc21
RP-LC retention time: 1090 s

CCOc1ccccc1CNC(=O)c1nnc(-c2ccc(S(=O)(=O)N3CCC(C)CC3)cc2)o1
RP-LC retention time: 1140 s

CC1CN(C(=O)COc2ccc3ccccc3c2)c2ccccc2NC1=O (stereo not drawn)
RP-LC retention time: 825 s

O=S(=O)(c1ccc2c(c1)CCC2)N1CCc2nc(-c3ccccc3)ncc2C1
RP-LC retention time: 1190 s

COc1ccc(NC(=O)C2CCCN(c3cnc4nccnc4c3)C2)cc1Cl (stereo not drawn)
RP-LC retention time: 746 s

Cc1nc(C)c(C(=O)N2CCCC2c2nc(CCOCC3CCCC3)no2)s1 (stereo not drawn)
RP-LC retention time: 905 s

CNC(=O)C1CCCN(c2nc3ncn(CC(=O)Nc4ccc5c(c4)OCCO5)c(=O)c3s2)C1 (stereo not drawn)
RP-LC retention time: 627 s

Cc1nc(Cn2cccc2C(=O)N2CCc3ccccc32)no1
RP-LC retention time: 885 s

Cc1ccc(Nc2nc(C)cc(N3CCN(C(=O)Nc4ccc5c(c4)OCO5)CC3)n2)cc1
RP-LC retention time: 676 s

CN(C)c1nccnc1OC1CCN(C(=O)C2CCOCC2)C1 (stereo not drawn)
RP-LC retention time: 605 s

Cc1cc(N2CCN(C)CC2)nc2ccc(NC(=S)N3CCC(C)CC3)cc12
RP-LC retention time: 604 s

O=C(Nc1cccc(-c2cn3cccnc3n2)c1)c1ccccc1[N+](=O)[O-]
RP-LC retention time: 637 s

Cc1c(NC(=O)OC[C@@H]2COCCN2)cn2ncnc(Nc3ccc4c(cnn4Cc4cccc(F)c4)c3)c12
RP-LC retention time: 674 s

Cc1cc(C)n(CC(=O)N2CCN(c3ccccc3)CC2)c1-c1nc(C2CC2)no1
RP-LC retention time: 932 s

O=C(NCc1ccccc1F)C1CCCN(c2nnc3ccc(C(F)(F)F)cn23)C1 (stereo not drawn)
RP-LC retention time: 781 s

CCN1C(=O)CN(C(=O)c2ccsc2)CC12CCOCC2
RP-LC retention time: 621 s

CCNc1cc(N2CCCC(CCC(=O)N3CCN(c4ncccn4)CC3)C2)ncn1 (stereo not drawn)
RP-LC retention time: 624 s

Cc1cccc(CNC(=O)c2ncn3c2C(=O)N(C2CC2)C(C)(C(=O)NCc2cccc(C)c2)C3)c1 (stereo not drawn)
RP-LC retention time: 832 s

Cc1cc(C)cc(C(=O)N2CCC(COc3ccc(C(=O)NC4CC4)cc3)CC2)c1
RP-LC retention time: 887 s

CCOc1ccc(/C=C/C(=O)Nc2nc(-c3ccc4c(c3)N(CC)C(=O)CO4)cs2)cc1OC
RP-LC retention time: 1020 s

CC1CCN(S(=O)(=O)c2ccc3nn(Cc4ccc(F)cc4)c(=O)n3c2)CC1
RP-LC retention time: 1020 s

CCCS(=O)(=O)N1CCCc2cc(NC(=O)Nc3cccc(OC)c3OC)ccc21
RP-LC retention time: 908 s

CCc1cccc(NC(=O)Nc2cccc(-c3ccc(N4CCOCC4)nn3)c2)c1
RP-LC retention time: 770 s

Fc1cc(F)cc(-c2nnc(Cc3nc(-c4ccc(Cl)cc4)no3)o2)c1
RP-LC retention time: 1130 s

Cc1ccc(-c2nnc(-c3nn(C)c4c3CN(S(=O)(=O)c3ccc(C(C)(C)C)cc3)CC4)o2)cc1
RP-LC retention time: 1210 s

O=C(C1CCN(c2cnc(N3CCCC3)nc2)CC1)N1CCCCC1
RP-LC retention time: 616 s

[C-]#[N+]/C(C(=O)Nc1ccc(C(F)(F)F)cc1)=C(\C)O
RP-LC retention time: 846 s

C[C@H](CCC(=O)NCCS(=O)(=O)O)[C@H]1CC[C@H]2[C@@H]3CC[C@@H]4C[C@H](O)CC[C@]4(C)[C@H]3C[C@H](O)[C@]12C
RP-LC retention time: 724 s

COC(=O)C(C)Sc1ncnc2sc(C)c(C)c12 (stereo not drawn)
RP-LC retention time: 955 s

CCN1C(=O)c2ccccc2Oc2ccc(C(=O)NCc3ccccc3)cc21
RP-LC retention time: 912 s

COc1cccc(NC(=O)N2CCCC2c2nc(-c3cccc(Cl)c3)no2)c1 (stereo not drawn)
RP-LC retention time: 1050 s

CCCn1cc(C(=O)Nc2ccc(C)cc2)c(S(=O)(=O)N2CCSCC2)n1
RP-LC retention time: 1090 s

CC(=O)c1cccc(NC(=O)Cc2ccc3ccccc3c2)c1
RP-LC retention time: 858 s

CCCNC(=O)C1CCCN(c2ccc(SCC(=O)Nc3cccc(C(F)(F)F)c3)nn2)C1 (stereo not drawn)
RP-LC retention time: 744 s

O=C(C1=CN(c2ccc(F)cc2)c2cc(Cl)ccc2S1(=O)=O)N1CCCC1
RP-LC retention time: 844 s

O=C(CN1CCN(C(=O)Nc2ccc(Br)cc2)CC1=O)NC1CCCCCC1
RP-LC retention time: 786 s

CCOC(=O)c1nc(N(CC)c2ccccc2)c2ccccc2n1
RP-LC retention time: 769 s

CCOC(=O)Cc1nnc(-c2ccc(Br)cc2)o1
RP-LC retention time: 903 s

COc1ccc(C(F)(F)F)cc1NC(=O)CCCSc1ccc(NC(C)=O)nn1
RP-LC retention time: 785 s

CCn1c(CCc2cccc(NS(=O)(=O)c3cnc[nH]3)c2)nc2ccccc21
RP-LC retention time: 524 s
